The values below come from patent US20140073634A1 (Institute For Applied Cancer Science/The University of …, priority 2012, published 2014).

This experiment relates to 293T-HRE-GFP-luc cells. The experiment is described as follows: Cell-based reporter assay for IC50 determinations (HRE-luciferase, hypoxia). To be noted: 6 h, 6 hrs hypoxia (1% O2), luminescence. In a few lines: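 293T-HRE-GFP-luc cells were pre-incubated with serially diluted compounds for 30 min under normoxia, then held 6 hrs in hypoxia (1% O2, 37° C). HRE-driven luciferase read by Steadylite Plus luminescence; IC50 from four-parameter logistic fit.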
(In general: In a reporter assay the amount or activity of a reporter protein is the signal.)
Consider `COC(=O)c1cccc(Cn2nc(-c3nc(-c4ccc(OC(F)(F)F)cc4)no3)ccc2=O)c1` [Example 109, methyl 3-((6-oxo-3-(3-(4-(trifluoromethoxy)phenyl)-1,2,4-oxadiazol-5-yl)pyridazin-1(6H)-yl)methyl)benzoate], for which the IC50 is 100 to 1000 nM.
`O=C(c1cccc(Cn2nc(-c3nc(-c4ccc(OC(F)(F)F)cc4)no3)ccc2=O)c1)N1CCOCC1` [Example 110, 2-(3-(morpholine-4-carbonyl)benzyl)-6-(3-(4-(trifluoromethoxy)phenyl)-1,2,4-oxadiazol-5-yl)pyridazin-3(2H)-one] registered an IC50 of 100 to 1000 nM.
The molecule `O=c1ccc(-c2nc(-c3ccc(OC(F)(F)F)cc3)no2)nn1Cc1ccc(F)c(N2CCOCC2)c1` [Example 111, 2-(4-fluoro-3-morpholinobenzyl)-6-(3-(4-(trifluoromethoxy)phenyl)-1,2,4-oxadiazol-5-yl)pyridazin-3(2H)-one] had an IC50 of under 100 nM.
Under `CN1CCN(C(=O)c2cccc(Cn3nc(-c4nc(-c5ccc(OC(F)(F)F)cc5)no4)ccc3=O)c2)CC1` [Example 112, 2-(3-(4-methylpiperazine-1-carbonyl)benzyl)-6-(3-(4-(trifluoromethoxy)phenyl)-1,2,4-oxadiazol-5-yl)pyridazin-3(2H)-one] stands 100 to 1000 nM.
Consider `CN1CCN(c2cc(Cn3nc(-c4nc(-c5ccc(OC(F)(F)F)cc5)no4)ccc3=O)ccc2F)CC1` [Example 113, 2-(4-fluoro-3-(4-methylpiperazin-1-yl)benzyl)-6-(3-(4-(trifluoromethoxy)phenyl)-1,2,4-oxadiazol-5-yl)pyridazin-3(2H)-one], for which the half-inhibitory concentration (IC50) is under 100 nM.
As for `O=C(c1cccc(Cn2cc(-c3nc(-c4ccc(OC(F)(F)F)cc4)no3)ccc2=O)c1)N1CCOCC1` [Example 114, 1-(3-(morpholine-4-carbonyl)benzyl)-5-(3-(4-(trifluoromethoxy)phenyl)-1,2,4-oxadiazol-5-yl)pyridin-2(1H)-one], the IC50 was under 100 nM.
As for `CN1CCN(C(=O)c2cccc(Cn3cc(-c4nc(-c5ccc(OC(F)(F)F)cc5)no4)ccc3=O)c2)CC1` [Example 115, 1-(3-(4-methylpiperazine-1-carbonyl)benzyl)-5-(3-(4-(trifluoromethoxy)phenyl)-1,2,4-oxadiazol-5-yl)pyridin-2(1H)-one], the half-maximal inhibitory concentration (IC50) is under 100 nM.
Under `CN1CCN(c2cccc(Cn3cc(-c4nc(-c5ccc(OC(F)(F)F)cc5)no4)ccc3=O)c2)CC1` [Example 116, 1-(3-(4-methylpiperazin-1-yl)benzyl)-5-(3-(4-(trifluoromethoxy)phenyl)-1,2,4-oxadiazol-5-yl)pyridin-2(1H)-one] stands under 100 nM; under `COC(=O)c1cc(Cn2nc(-c3nc(-c4ccc(OC(F)(F)F)cc4)no3)ccc2=O)ccn1` [Example 117, methyl 4-((6-oxo-3-(3-(4-(trifluoromethoxy)phenyl)-1,2,4-oxadiazol-5-yl)pyridazin-1(6H)-yl)methyl)picolinate], 1000 to 10000 nM.
Consider `CS(=O)(=O)c1cccc(Cn2nc(-c3nc(-c4ccc(OC(F)(F)F)cc4)no3)ccc2=O)c1` [Example 118, 2-(3-(methylsulfonyl)benzyl)-6-(3-(4-(trifluoromethoxy)phenyl)-1,2,4-oxadiazol-5-yl)pyridazin-3(2H)-one], for which the 50% inhibitory concentration (IC50) was under 100 nM.
For `NS(=O)(=O)c1cccc(Cn2nc(-c3nc(-c4ccc(OC(F)(F)F)cc4)no3)ccc2=O)c1` [Example 119], the IC50 was under 100 nM.
`N#Cc1cccc(Cn2nc(-c3nc(-c4ccc(OC(F)(F)F)cc4)no3)ccc2=O)c1` [Example 120, 3-((6-oxo-3-(3-(4-(trifluoromethoxy)phenyl)-1,2,4-oxadiazol-5-yl)pyridazin-1(6H)-yl)methyl)benzonitrile]: the IC50 is under 100 nM.
The molecule `COc1cccc(Cn2cc(-c3nc(-c4ccc(OC(F)(F)F)cc4)no3)ccc2=O)c1` [Example 121, 1-(3-methoxybenzyl)-5-(3-(4-(trifluoromethoxy)phenyl)-1,2,4-oxadiazol-5-yl)pyridin-2(1H)-one] gave an IC50 of under 100 nM.
Consider `N#Cc1cccc(Cn2cc(-c3nc(-c4ccc(OC(F)(F)F)cc4)no3)ccc2=O)c1` [Example 122, 3-((2-oxo-5-(3-(4-(trifluoromethoxy)phenyl)-1,2,4-oxadiazol-5-yl)pyridin-1(2H)-yl)methyl)benzonitrile], for which the concentration for half-maximal inhibition (IC50) is under 100 nM.
Under `CS(=O)(=O)c1cccc(Cn2cc(-c3nc(-c4ccc(OC(F)(F)F)cc4)no3)ccc2=O)c1` [Example 123, 1-(3-(methylsulfonyl)benzyl)-5-(3-(4-(trifluoromethoxy)phenyl)-1,2,4-oxadiazol-5-yl)pyridin-2(1H)-one] stands under 100 nM; under `NS(=O)(=O)c1cccc(Cn2cc(-c3nc(-c4ccc(OC(F)(F)F)cc4)no3)ccc2=O)c1` [Example 124, 3-((2-oxo-5-(3-(4-(trifluoromethoxy)phenyl)-1,2,4-oxadiazol-5-yl)pyridin-1(2H)-yl)methyl)benzenesulfonamide], under 100 nM.
Molecule `CN1CCN(C(=O)c2cc(Cn3nc(-c4nc(-c5ccc(OC(F)(F)F)cc5)no4)ccc3=O)ccn2)CC1` [Example 125, 2-((2-(4-methylpiperazine-1-carbonyl)pyridin-4-yl)methyl)-6-(3-(4-(trifluoromethoxy)phenyl)-1,2,4-oxadiazol-5-yl)pyridazin-3(2H)-one] displayed a 50% inhibitory concentration (IC50) of 1000 to 10000 nM.
Molecule `COC(=O)c1cc(Cn2nc(-c3nc(-c4ccc(OC(F)(F)F)cc4)no3)ccc2=O)ccc1F` [Example 126, methyl 2-fluoro-5-((6-oxo-3-(3-(4-(trifluoromethoxy)phenyl)-1,2,4-oxadiazol-5-yl)pyridazin-1(6H)-yl)methyl)benzoate] gave an IC50 of under 100 nM.
For `O=c1c(-c2nc(-c3ccc(OC(F)(F)F)cc3)no2)cccn1Cc1ccnc(N2CCOCC2)c1` [Example 127, 1-((2-morpholinopyridin-4-yl)methyl)-3-(3-(4-(trifluoromethoxy)phenyl)-1,2,4-oxadiazol-5-yl)pyridin-2(1H)-one], the 50% inhibitory concentration (IC50) was in the range of 100 to 1000 nM.
With `Cc1ccc(-c2nc(-c3ccc(OC(F)(F)F)cc3)no2)c(=O)n1Cc1cccc(C(=O)N(C)C)c1` [Example 128, N,N-dimethyl-3-((6-methyl-2-oxo-3-(3-(4-(trifluoromethoxy)phenyl)-1,2,4-oxadiazol-5-yl)pyridin-1(2H)-yl)methyl)benzamide], the 50% inhibitory concentration (IC50) was in the range of 100 to 1000 nM.
The molecule `O=C(c1cc(Cn2nc(-c3nc(-c4ccc(OC(F)(F)F)cc4)no3)ccc2=O)ccc1F)N1CCOCC1` [Example 129, 2-{[4-fluoro-3-(morpholine-4-carbonyl)phenyl]methyl}-6-{3-[4-(trifluoromethoxy)phenyl]-1,2,4-oxadiazol-5-yl}-2,3-dihydropyridazin-3-one] gave an IC50 of 100 to 1000 nM.
`CN1CCN(C(=O)c2cc(Cn3nc(-c4nc(-c5ccc(OC(F)(F)F)cc5)no4)ccc3=O)ccc2F)CC1` [Example 130, 2-{[4-fluoro-3-(4-methylpiperazine-1-carbonyl)phenyl]methyl}-6-{3-[4-(trifluoromethoxy)phenyl]-1,2,4-oxadiazol-5-yl}-2,3-dihydropyridazin-3-one] gave an IC50 of 100 to 1000 nM.
`CNC(=O)c1cccc(Cn2nc(-c3nc(-c4ccc(OC(F)(F)F)cc4)no3)ccc2=O)c1` [Example 131, N-methyl-3-[(6-oxo-3-{3-[4-(trifluoromethoxy)phenyl]-1 2 4-oxadiazol-5-yl}-1 6-dihydropyridazin-1-yl)methyl]benzamide]: the IC50 is under 100 nM.
Next, `NC(=O)c1cccc(Cn2nc(-c3nc(-c4ccc(OC(F)(F)F)cc4)no3)ccc2=O)c1` [Example 132, 3-[(6-oxo-3-{3-[4-(trifluoromethoxy)phenyl]-1,2,4-oxadiazol-5-yl}-1,6-dihydropyridazin-1-yl)methyl]benzamide]: under 100 nM; `CNC(=O)c1cccc(Cn2cc(-c3nc(-c4ccc(OC(F)(F)F)cc4)no3)ccc2=O)c1` [Example 133, N-methyl-3-[(2-oxo-5-{3-[4-(trifluoromethoxy)phenyl]-1,2,4-oxadiazol-5-yl}-1,2-dihydropyridin-1-yl)methyl]benzamide]: under 100 nM.
Under `CN(C)C(=O)c1cccc(Cn2cc(-c3nc(-c4ccc(OC(F)(F)F)cc4)no3)ccc2=O)c1` [Example 134, N,N-dimethyl-3-[(2-oxo-5-{3-[4-(trifluoromethoxy)phenyl]-1,2,4-oxadiazol-5-yl}-1,2-dihydropyridin-1-yl)methyl]benzamide] stands under 100 nM; under `O=c1ccc(-c2nc(-c3ccc(OC(F)(F)F)cc3)no2)cn1Cc1ccc(F)c(Br)c1` [Example 135, 1-[(3-bromo-4-fluorophenyl)methyl]-5-{3-[4-(trifluoromethoxy)phenyl]-1,2,4-oxadiazol-5-yl}-1,2-dihydropyridin-2-one], 100 to 1000 nM.
Consider `COc1ccc(Cn2cc(-c3nc(-c4ccc(OC(F)(F)F)cc4)no3)ccc2=O)cc1` [Example 136, 1-[(4-methoxyphenyl)methyl]-5-{3-[4-(trifluoromethoxy)phenyl]-1,2,4-oxadiazol-5-yl}-1,2-dihydropyridin-2-one], for which the half-inhibitory concentration (IC50) is under 100 nM.
In the case of `CN1CCN(c2cc(Cn3cc(-c4nc(-c5ccc(OC(F)(F)F)cc5)no4)ccc3=O)ccc2F)CC1` [Example 137, 1-{[4-fluoro-3-(4-methylpiperazin-1-yl)phenyl]methyl}-5-{3-[4-(trifluoromethoxy)phenyl]-1,2,4-oxadiazol-5-yl}-1,2-dihydropyridin-2-one], the concentration for half-maximal inhibition (IC50) was under 100 nM.
For the molecule `O=c1ccc(-c2nc(-c3ccc(OC(F)(F)F)cc3)no2)cn1Cc1ccc(F)c(N2CCOCC2)c1` [Example 138, 1-{[4-fluoro-3-(morpholin-4-yl)phenyl]methyl}-5-{3-[4-(trifluoromethoxy)phenyl]-1,2,4-oxadiazol-5-yl}-1,2-dihydropyridin-2-one], the IC50 was under 100 nM.
Turning to `O=c1ccc(-c2nc(-c3ccc(OC(F)(F)F)cc3)no2)cn1Cc1ccc(F)c(N2CCC(O)CC2)c1` [Example 139, 1-{[4-fluoro-3-(4-hydroxypiperidin-1-yl)phenyl]methyl}-5-{3-[4-(trifluoromethoxy)phenyl]-1,2,4-oxadiazol-5-yl}-1,2-dihydropyridin-2-one], the 50% inhibitory concentration (IC50) was under 100 nM.

A word on the IC50: it is the concentration that gives 50% inhibition. Read a high IC50 as weaker potency.
